Assay results taken from US20060058388A1, “Methods for treating ocular diseases via introxide and or polyhydroxy acid containing compounds” (priority 2003, published 2006).

Experiments:
[1] = tested on: human skin fibroblasts containing the human elastin promoter linked to a luciferase reporter gene construct; assay: Neutral Red Cytotoxicity/Phototoxicity Assay
Method: Immortalized human skin fibroblasts containing the human elastin promoter linked to a luciferase reporter gene construct were seeded in 96-well plates at a density of 7,500 cells per well (doubling time ˜30 hours). Cells were grown in 75 cm^2 tissue culture flasks in MEM (without phenol red) supplemented with 10% FBS, 25 mM HEPES, 2 mM l-glutamine, 1% nonessential amino acids, 50 μg/mL Gentamycin, and 5 μg/mL Zeocin. Cell cultures were incubated in a 37° C. incubator (containing 5% CO2) when not being manipulated or irradiated. Cell cultures were washed with Phosphate Buffered Saline (PBS) with Ca^++ and Mg^++ when media or compounds were removed and before ultraviolet radiation (UVR).
Gluconolactone was prepared in PBS. Concentrations of 0.5, 1.0, 2.5, 5.0, 7.5, 10.0, 12.5, and 25% (w/v) were prepared and adjusted to a pH of 7.2. Gluconolactone was incubated 15 minutes prior to and in contact with cell cultures during UV-irradiation.
4-Hydroxy-tempo (tempol) was prepared in PBS. Concentrations of tempol of 10, 25, 50, 62.5, 100, 125, 250, and 500 mM were prepared and adjusted to a pH of 7.2. Tempol was incubated 15 minutes prior to and in contact with cell cultures during UV-irradiation.
Cell cultures were UV-irradiated with Westinghouse 40-Watt fluorescent sunlamps (FS-40 lamps) with doses of either 2 or 5 mJ/cm^2, based on a PMA2100 radiometer (Solar light Company, Philadelphia, Pa.) equipped with a PMA2101 erythema weighted detector.
Fifteen hours after UV-irradiation with the FS-40 lamps, cell cultures were washed with PBS and Neutral Red Medium (Neutral Red dye+supplemented MEM) was added for a 3 hours (in 37° C. incubators). After the incubation period, cells are washed with PBS and the Neutral Red Desorb solution (50% Ethanol, 49% distilled water, 1% Glacial Acetic Acid) was added. Plates are shaken for 10 minutes at 500 rpm and then the absorption was read at 540 nm using THERMOmax plate reader and SOFTmax PRO software.

[2] = tested on: human elastin promoter linked to a luciferase reporter gene construct in human skin fibroblasts; assay: human elastin promoter/luciferase assay (UV-induced promoter induction); type: cell-based
Method: Thus, gluconolactone protects against UV-induced gene induction in cells containing the human elastin promoter/luciferase construct. […] The ED50 for cell cultures with tempol but not receiving any ultraviolet radiaiton was approximately 100 mM.
Gluconolactone was prepared in PBS.
4-Hydroxy-tempo (tempol) was prepared in PBS.

Row | Structure (SMILES) | phototoxicity or cytotoxicity [1] | ED50 for phototoxicity ([1]; human, pH 7.2) | protection against UV-induced promoter induction ([2]; human elastin promoter/luciferase fibroblasts, UV-irradiated) | protection against toxicity ([1]; neutral red assay, increasing ultraviolet doses) | ED50 for cell cultures ([1]; not receiving any ultraviolet radiation) | ED50 for cell cultures ([1]; ultraviolet radiation dose 2 mJ/cm^2) | ED50 for cell cultures ([1]; ultraviolet radiation dose 5 mJ/cm^2) [mM] | protection against toxicity ([2]; human elastin promoter/luciferase assay, increasing ultraviolet doses)
1 | O=C1O[C@H](CO)[C@@H](O)[C@H](O)[C@H]1O [Glucolactone, Gluconolactone] | did not demonstrate significant phototoxicity or cytotoxicity | approximately 102 g/L | approximately 50% | – | – | – | – | –
2 | CC1(C)CC(O)CC(C)(C)N1[O] [tempol, 4-Hydroxy-tempo] | – | – | – | over 50% | approximately 100 mM | approximately 150 mM | ~250 | over 50%
